From patent EP1228058B1, “BENZOPYRANYL GUANIDINE DERIVATIVES, PROCESS FOR PREPARATION THEREOF, AND PHARMACEUTICAL COMPOSITIONS CONTAINING THEM” (Dongbu Hannong Chemical Co., Ltd., priority 1999, dated 2001) come the findings set out here.

Data set [1] concerns rat aorta. As to the kind of experiment: Vasodilation effects on isolated blood vessels of rats (methoxamine-constricted aortic rings). Format: cell-based. Conditions: isolated rat aorta constricted with methoxamine (3 uM); read-out: Vasodilation Activity (in Vitro, rat aorta) (IC50). From the text: Male Sprague-Dawly rats (350-450 g, obtained from the Experimental Animal Team of the Korea Research Institute of Chemical Technology) were knocked unconscious by hitting the occipital region, sacrificed by cervical dislocation, and underwent thoracotomy. After being quickly removed, the thoracic aorta was deprived of the adipose tissue and cut into aortic rings of 3 mm width. The aorta was lightly rubbed with a modified Krebs Henseleit buffer (Physiological Salt Solution, PSS) soaked cotton club to remove the inner epithelial layer therefrom. While being suspended in an organ bath containing a physiological buffer, the vascular tissue was allowed to equilibrate under a resting tension of 2 g and then, stand for 1 hour at 37 °C for stabilization with a supply of a carbogen consisting of 95% O2-5% CO2.
Thereafter, the vascular tissue was constricted with 10^-5 M phenylephrine and washed several times with PSS and this procedure was repeated again to ensure the stable reacivity of vascular smooth muscle to repetitive constriction/dilatation.
In addition, 3x10^-6 M methoxamine was used to induce an intensive constriction in the vascular smooth muscle. When the vasoconstriction induced by the methoxamine reached and maintained a maximum, test compounds and controls were cumulatively added to the organ baths in concentrations of 1, 3, 10 and 30 uM so as to induce vasodilatation. As for the controls, they were Cromakalim and BMS-180448 (the compounds of the chemical formula 2), both known to be the first generation KATP activator with potent vasodilatation and cardioprotection effects.
Following the addition of the drugs, the change in the maximal constriction induced by methoxamine was calculated to plot a concentration-dilation response curve. Through a linear regression analysis, IC50, the drug concentration at which the vascular tissue is 50% dilated, was obtained for each drug.

The test system of data set [2] is HUVEC. As to the kind of experiment: Inhibition of HUVEC tube formation on Matrigel. Format: cell-based, Human. The arrangement: key: -: no effect; +/-: week effect; +: moderate effect; ++: strong effect. How it is done:
HUVEC (Human umbilical vein endothelial cells, ATCC CRL-1730) were cultured, and tubulogenesis was induced in vascular endothelial cells by plating them onto the surface of Matrigel for several hours. The effects on tube formation of the test compounds were compared with the vehicle treated controls, then confirmed their in vitro anti-angiogenic effect indirectly.

Data set [3] can be described thus: Acute oral toxicity test in rats. The following applies: rat, in vivo, single oral dose in 0.5% methyl cellulose, read-out: lethal dose (LD50) for oral administration. As for the experimental part: In this test six-week old SPF SD rats were used with two rats assigned to each group. The compounds of examples 1, 2, 3, 5, 7, 8, 9, 10, 13, 14, 15, 19, 22, 23, 24, 25, 26, 28, 29, 30, 31, 32, 33, 34, 35, 36, 37, 38, 39, 40, 41, 44, 46, 47, 48, 49, 51, 52, 57, 58, 60, 62, 64, 67, 68, 69, 71 and 72 were suspended in 0.5% methyl cellulose, respectively, and administered orally at a single dose of 1 g/kg using a ball-tipped needle. The dosing volume was 10 ml/kg. […] All survivors at the end of the observation period underwent laparotomy under ether anesthesia and the blood samples were taken from the abdominal aorta for hematological tests and biochemical analysis. After sacrificing the animals, autopsy was performed for macroscopic observation of the organs and tissues. Tissue samples of vital organs from macroscopic legion were removed and fixed in 10% neutral buffered formalin solution, then processed by standard procedures for histopathology and examined under light microscope. There were no significant changes in clinical symptoms, body weight and mortalities. Also in hematology, serum chemistry parameters and macroscopic observation, no drug-related changes were observed.

The structures appear in SMILES notation. Some results are limits rather than exact numbers.

As usually defined, the IC50 is the concentration needed to halve the response being measured. `CC1(C)Oc2ccc(C#N)cc2C(N2CCCC2=O)C1O` (stereo not shown) [Cromakalim, reference compound]: in data set [1], the IC50 worked out at 67 nM.

On to `COC(OC)[C@@]1(C)Oc2ccc([N+](=O)[O-])cc2[C@@H](NC(=NC#N)NCc2cccc([N+](=O)[O-])c2)[C@@H]1O` [Example 52, (2S, 3S, 4R)-N''-cyano-N-(6-nitro-3,4-dihydro-3-hydroxy-2-methyl-2-dimethoxymethyl-2H-benzopyran-4-yl)-N'-(3-nitrobenzyl)guanidine], for which the “Inhibitory Effects on Tube Formation” value in data set [2] (10 uM) is reported as “+/-”; in data set [2] (100 uM) it was “++”. The LD50 in data set [3] was above 1000 mg/kg.

For the molecule `COc1ccc(NC(=NC#N)N[C@H]2c3cc([N+](=O)[O-])ccc3O[C@](C)(C(OC)OC)[C@@H]2O)cc1` [Example 16, (2S, 3R, 4S)-N''-cyano-N-(6-nitro-3,4-dihydro-3-hydroxy-2-methyl-2-dimethoxymethyl-2H-benzopyran-9-yl)-N'-(4-methoxyphenyl) guanidine], the “Inhibitory Effects on Tube Formation” value in data set [2] (10 uM) and in data set [2] (100 uM) was “+/-” throughout.

For `COC(OC)[C@]1(C)Oc2c(N)cccc2[C@@H](NC(=NC#N)NCc2ccccc2)[C@@H]1O` [Example 72, (2R, 3S, 4R)-N''-cyano-N-(8-amino-3,4-dihydro-3-hydroxy-2-methyl-2-dimthoxymethyl-2H-benzopyran-4-yl)-N'-benzylguanidine], the LD50 in data set [3] is above 1000 mg/kg.

On to `COC(OC)[C@@]1(C)Oc2ccc([N+](=O)[O-])cc2[C@@H](NC(=NC#N)Nc2ccccc2C(F)(F)F)[C@@H]1O` [Example 35, (2S, 3S, 4R)-N''-cyano-N-(6-nitro-3,4-dihydro-3-hydroxy-2-methyl-2-dimethoxymethyl-2H-benzopyran-4-yl)-N'-(2-trifluoromethylphenyl)guanidine], for which the LD50 in data set [3] was above 1000 mg/kg.

`COC(OC)[C@@]1(C)Oc2ccc([N+](=O)[O-])cc2[C@H](NC(=NC#N)Nc2cccc(C(F)(F)F)c2)[C@H]1O` [Example 14, (2S, 3R, 4S)-N''-cyano-N-(6-nitro-3,4-dihydro-3-hydroxy-2-methyl-2-dimethoxymethyl-2H-benzopyran-4-yl)-N'-(3-trifluoromethylphenyl)guanidine]: in data set [3], the LD50 was above 1000 mg/kg.

For the molecule `COc1ccc(NC(=NC#N)N[C@H]2c3cc([N+](=O)[O-])ccc3O[C@@](C)(C(OC)OC)[C@@H]2O)cc1` [Example 8, (2R, 3R, 4S)-N''-cyano-N-(6-nitro-3,4-dihydro-3-hydroxy-2-methyl-2-dimethoxymethyl-2H-benzopyran-4-yl)-N'-(4-methoxyphenyl) guanidine], the LD50 in data set [3] was above 1000 mg/kg.

Take `COc1ccc(CNC(=NC#N)N[C@@H]2c3cc([N+](=O)[O-])ccc3O[C@](C)(C(OC)OC)[C@H]2O)cc1OC` [Example 48, (2S, 3S, 4R)-N''-cyano-N-(6-nitro-3,4-dihydro-3-hydroxy-2-methyl-2-dimethoxymethyl-2H-benzopyran-4-yl)-N'-(3,4-dimethoxybenzyl) guanidine]: the LD50 in data set [3] is above 1000 mg/kg.

As for `COC(=O)c1ccc2c(c1)[C@@H](NC(=NC#N)NCc1ccccc1)[C@H](O)[C@@](C)(C(OC)OC)O2` [Example 68, (2S, 3S, 4R)-N''-cyano-N-(6-methoxycarbonyl-3,4-dihydro-3-hydroxy-2-methyl-2-dimthoxymethyl-2H-benzopyran-4-yl)-N'-benzylguanidine], the LD50 in data set [3] was above 1000 mg/kg.

Turning to `COC(OC)[C@@]1(C)Oc2ccc(C#N)cc2[C@H](NC(=NC#N)NCc2ccccc2)[C@H]1O` [Example 46, (2S, 3R, 4S)-N''-cyano-N-(6-cyano-3,4-dihydro-3-hydroxy-2-methyl-2-dimethoxymethyl-2H-benzopyran-4-yl)-N'-benzylguanidine], the LD50 in data set [3] is above 1000 mg/kg.

On to `COC(OC)[C@@]1(C)Oc2ccc([N+](=O)[O-])cc2[C@H](NC(=NC#N)Nc2ccc(Cl)cc2)[C@H]1O` [Example 10, (2S, 3R, 4S)-N''-cyano-N-(6-nitro-3,4-dihydro-3-hydroxy-2-methyl-2-dimethoxymethyl-2H-benzopyran-4-yl)-N'-(4-chlorophenyl)guanidine], for which the “Inhibitory Effects on Tube Formation” value in data set [2] (10 uM) was “+”; in data set [2] (100 uM) it was “++”. Moreover, the LD50 in data set [3] is above 1000 mg/kg.

In the case of `COC(OC)[C@]1(C)Oc2ccc([N+](=O)[O-])cc2[C@H](NC(=NC#N)Nc2cccc(Cl)c2)[C@H]1O` [Example 3, (2R, 3R, 4S)-N''-cyano-N-(6-nitro-3,4-dihydro-3-hydroxy-2-methyl-2-dimethoxymethyl-2H-benzopyran-4-yl)-N'-(3-chlorophenyl)guanidine], the LD50 in data set [3] is above 1000 mg/kg.

For `COC(=O)c1ccc2c(c1)[C@@H](NC(=NC#N)NCc1ccccc1)[C@H](O)[C@](C)(C(OC)OC)O2` [Example 69, (2R, 3S, 4R)-N''-cyano-N (6-methoxycarbonyl-3,4-dihydro-3-hydroxy-2-methyl-2-dimthoxymethyl-2H-benzopyran-4-yl)-N'-benzylguanidine], the LD50 in data set [3] was above 1000 mg/kg.

Consider `COc1ccc(CNC(=NC#N)N[C@@H]2c3cc(N)ccc3O[C@](C)(C(OC)OC)[C@H]2O)cc1OC` [Example 49, (2S, 3S, 4R)-N''-cyano-N-(6-amino-3,4-dihydro-3-hydroxy-2-methyl-2-dimethoxymethyl-2H-benzopyran-4-yl)-N'-(3,4-dimethoxybenzyl) guanidine], for which the LD50 in data set [3] is above 1000 mg/kg.

As to `CCOC(OCC)[C@@]1(C)Oc2ccc(N)cc2[C@@H](NC(=NC#N)NCc2ccccc2)[C@@H]1O` [Example 67, (2S, 3S, 4R)-N''-cyano-N-(6-amino-3,4-dihydro-3-hydroxy-2-methyl-2-diethoxymethyl-2H-benzopyran-4-yl)-N'-benzylguanidine], the LD50 in data set [3] is above 1000 mg/kg.

Regarding `COC(OC)[C@@]1(C)Oc2ccc(C#N)cc2[C@H](NC(=NC#N)Nc2ccc(Cl)cc2)[C@H]1O` [Example 44, (2S, 3R, 4S)-N''-cyano-N-(6-cyano-3,4-dihydro-3-hydroxy-2-methyl-2-dimethoxymethyl-2H-benzopyran-4-yl)-N'-(4-chlorophenyl)guanidine], in data set [3], the LD50 is above 1000 mg/kg.

In the case of `CC1(C)COC([C@@]2(C)Oc3ccc([N+](=O)[O-])cc3[C@@H](NC(=NC#N)NCc3ccccc3)[C@@H]2O)OC1` [Example 64, (2S, 3S, 4R)-N''-cyano-N-(6-nitro-3,9-dihydro-3-hydroxy-2-methyl-2-([1,3]-5,5-dimethyldioxan-2-yl)-2H-benzopyran-4-yl)-N'-benzyl guanidine], the LD50 in data set [3] is above 1000 mg/kg.

On to `C[C@]1(CO)Oc2ccc([N+](=O)[O-])cc2[C@H](NC(=NC#N)Nc2ccc(Cl)cc2)[C@H]1O` [Example 28, (2R, 3R, 4S)-N''-cyano-N-(6-nitro-3,4-dihydro-3-hydroxy-2-methyl-2-hydroxymethyl-2H-benzopyran-4-yl)-N'-(4-chlorophenyl)guanidine], for which the LD50 in data set [3] was above 1000 mg/kg.

Turning to `COC(OC)[C@]1(C)Oc2ccccc2[C@H](NC(=NC#N)Nc2ccc(Cl)cc2)[C@H]1O` [Example 26, (2R, 3R, 4S)-N''-cyano-N-(3,4-dihydro-3-hydroxy-2-methyl-2-dimethoxymethyl-2H-benzopyran-4-yl)-N'-(4-chlorophenyl)guanidine], in data set [3], the LD50 is above 1000 mg/kg.

Turning to `COC(OC)[C@]1(C)Oc2ccc([N+](=O)[O-])cc2[C@H](NC(=NC#N)Nc2ccc(Cl)cc2)[C@H]1O` [Example 1, (2R, 3R, 4S)-N''-cyano-N-(6-nitro-3,4-dihydro-3-hydroxy-2-methyl-2-dimethoxymethyl-2H-benzopyran-4-yl)-N'-(4-chlorophenyl)guanidine], the LD50 in data set [3] is above 1000 mg/kg.

Regarding `COC(OC)[C@]1(C)Oc2ccc([N+](=O)[O-])cc2[C@@H](NC(=NC#N)Nc2ccc(Cl)cc2)[C@@H]1O` [Example 2, (2R, 3S, 4R)-N''-cyano-N-(6-nitro-3,4-dihydro-3-hydroxy-2-methyl-2-dimethoxymethyl-2H-benzopyran-4-yl)-N'-(4-chlorophenyl)guanidine], the “Inhibitory Effects on Tube Formation” value is “+” in data set [2] (10 uM) and “++” in data set [2] (100 uM). Moreover, the LD50 in data set [3] is above 1000 mg/kg.
